Reference: ChEMBL document CHEMBL1201862, “PubChem BioAssay data set” (2004)
The source made the active and inactive calls.

What was measured:
Assay type in all cases: functional
[1] = target: T1, Orexin/Hypocretin receptor type 1 (Homo sapiens, UniProt O43613); test: (§1) Fluorescence-based cell-based high throughput dose response assay for antagonists of the orexin 1 receptor (OX1R; HCRTR1). [Related pubchem assays (depositor defined):AID434989, AID435008, AID463079, AID485270, AID492963, AID492964, AID492965, AID493232, AID504717, AID504718]
Orexin receptor type 2 [2] = target: T2, Orexin receptor type 2 (Homo sapiens, UniProt O43614); test: Counterscreen assay for antagonists of the orexin 1 receptor (OX1R; HCRTR1): Fluorescence-based cell-based dose response assay for antagonists of the orexin 2 receptor (OX2R; HCRTR2), run by assay provider.
[3] = (§2) Counterscreen for antagonists of the orexin 1 receptor (OX1R; HCRTR1): Fluorescence-based cell-based high throughput dose response assay to identify antagonists of the parental CHO cell line. [Related pubchem assays (depositor defined):AID434989, AID435008, AID463079, AID485270, AID492963, AID492964, AID492965, AID493232, AID504699, AID504701]
Orexin receptor type 2 [4] = target: T2, Orexin receptor type 2; test: Counterscreen assay for antagonists of the orexin 1 receptor (OX1R; HCRTR1): Homogeneous Time Resolved Fluorescence (HTRF)-based cell-based dose response assay for antagonists of the orexin 2 receptor (OX2R; HCRTR2), run by assay provider.
[5] = target: T1, Orexin/Hypocretin receptor type 1; test: as §1, with “Homogeneous Time Resolved Fluorescence (HTRF)-based” for “Fluorescence-based”
CHO-K1 = test: as §2, with “Homogeneous time resolved fluorescence (HTRF)-based” for “Fluorescence-based”, “cell-based” for “cell-based high throughput”, “CHO-K1” for “CHO”; conditions: Cricetulus griseus;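 note: potency for inhibition of ATP-stimulated IP1 production as antagonists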
[6] = target: Receptor-type tyrosine-protein kinase FLT3 (Homo sapiens, UniProt P36888);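 note: FLT3 was tested as one member of a kinome-wide kinase panel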
[7] = target: Calcium/calmodulin-dependent protein kinase type II subunit beta (Homo sapiens, UniProt Q13554)
Aurora kinase B = Aurora kinase B (Homo sapiens, UniProt Q96GD4)
[8] = target: Serine/threonine-protein kinase TAO1 (Homo sapiens, UniProt Q7L7X3)
[9] = target: Calcium/calmodulin-dependent protein kinase type II subunit gamma (Homo sapiens, UniProt Q13555)
[10] = target: Calcium/calmodulin-dependent protein kinase type II subunit delta (Homo sapiens, UniProt Q13557)
SRSF protein kinase 1 = SRSF protein kinase 1 (Homo sapiens, UniProt Q96SB4);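 note: measured as one member of a kinome-wide kinase profiling panel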
[11] = target: Mitogen-activated protein kinase kinase kinase kinase 4 (Homo sapiens, UniProt O95819)
[12] = target: Fibroblast growth factor receptor 3 (Homo sapiens, UniProt P22607)
[13] = target: Tyrosine-protein kinase JAK2 (Homo sapiens, UniProt O60674);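 note: JAK2 tested as one member of a kinase panel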
[14] = target: Dual specificity tyrosine-phosphorylation-regulated kinase 1B (Homo sapiens, UniProt Q9Y463); test: Navigating the Kinome. Panel member name: DYRK1B
[15] = target: Serine/threonine-protein kinase pim-2 (Homo sapiens, UniProt Q9P1W9);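 note: value comes from a broad kinase panel profiling study in which PIM2 was one of the panel members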
[16] = target: Tyrosine-protein kinase Blk (Homo sapiens, UniProt P51451);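 note: obtained as one member of a kinome-wide kinase assay panel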
[17] = target: Dual specificity tyrosine-phosphorylation-regulated kinase 1A (Homo sapiens, UniProt Q13627);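 note: measured against DYRK1A as one member of a broad kinome profiling panel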
[18] = target: Vascular endothelial growth factor receptor 1 (Homo sapiens, UniProt P17948);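 note: measured within a kinome-wide profiling panel, FLT1 as the panel member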
Aurora kinase A = Aurora kinase A (Homo sapiens, UniProt O14965);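 note: value from the Navigating the Kinome kinase panel profiling, panel entry STK6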
[19] = target: Tyrosine-protein kinase Fyn (Homo sapiens, UniProt P06241)
[20] = target: Serine/threonine-protein kinase PAK 4 (Homo sapiens, UniProt O96013);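 note: value obtained within a kinome profiling panel in which PAK4 was one of the panel members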
[21] = target: Serine/threonine-protein kinase D2 (Homo sapiens, UniProt Q9BZL6);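 note: measured against PRKD2 as one member of a kinome-wide kinase profiling panel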
[22] = target: MAP/microtubule affinity-regulating kinase 3 (Homo sapiens, UniProt P27448);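 note: MARK3 affinity measured as one member of a kinome panel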
Activin receptor type-1 = Activin receptor type-1 (Homo sapiens, UniProt Q04771); test: Navigating the Kinome. Panel member name: ACVR1
[23] = target: Tyrosine-protein kinase Lyn (Homo sapiens, UniProt P07948);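 note: lyn as one member of a kinase panel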
[24] = target: Tyrosine-protein kinase ABL1 (Homo sapiens, UniProt P00519)
[25] = target: Insulin-like growth factor 1 receptor (Homo sapiens, UniProt P08069); test: Navigating the Kinome. Panel member name: IGF1R
[26] = target: Tyrosine-protein kinase JAK3 (Homo sapiens, UniProt P52333)
[27] = target: Mitogen-activated protein kinase 13 (Homo sapiens, UniProt O15264)
[28] = target: Receptor tyrosine-protein kinase erbB-2 (Homo sapiens, UniProt P04626); test: Navigating the Kinome. Panel member name: ERBB2
[29] = target: Tyrosine-protein kinase ITK/TSK (Homo sapiens, UniProt Q08881);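 note: affinity for ITK measured as one member of a broad kinase panel profiling binding across the kinome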
[30] = target: Vascular endothelial growth factor receptor 2 (Homo sapiens, UniProt P35968)
[31] = target: Leucine-rich repeat serine/threonine-protein kinase 2 (Homo sapiens, UniProt Q5S007);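 note: value from a broad kinome-wide panel profiling study in which LRRK2 was one of the kinases tested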
[32] = target: Dual specificity protein kinase CLK4 (Homo sapiens, UniProt Q9HAZ1)
[33] = target: cAMP-dependent protein kinase catalytic subunit alpha (Homo sapiens, UniProt P17612)
[34] = target: Cyclin-dependent kinase 1 (Homo sapiens, UniProt P06493);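 note: Kinome-wide panel profiling, with the target listed as panel member CDC2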
[35] = target: Proto-oncogene tyrosine-protein kinase ROS (Homo sapiens, UniProt P08922);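 note: ROS1 tested as one member of a kinome-wide kinase panel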
[36] = target: Mitogen-activated protein kinase 1 (Homo sapiens, UniProt P28482)

Sequence of Leucine-rich repeat serine/threonine-protein kinase 2 (Q5S007 whole entry): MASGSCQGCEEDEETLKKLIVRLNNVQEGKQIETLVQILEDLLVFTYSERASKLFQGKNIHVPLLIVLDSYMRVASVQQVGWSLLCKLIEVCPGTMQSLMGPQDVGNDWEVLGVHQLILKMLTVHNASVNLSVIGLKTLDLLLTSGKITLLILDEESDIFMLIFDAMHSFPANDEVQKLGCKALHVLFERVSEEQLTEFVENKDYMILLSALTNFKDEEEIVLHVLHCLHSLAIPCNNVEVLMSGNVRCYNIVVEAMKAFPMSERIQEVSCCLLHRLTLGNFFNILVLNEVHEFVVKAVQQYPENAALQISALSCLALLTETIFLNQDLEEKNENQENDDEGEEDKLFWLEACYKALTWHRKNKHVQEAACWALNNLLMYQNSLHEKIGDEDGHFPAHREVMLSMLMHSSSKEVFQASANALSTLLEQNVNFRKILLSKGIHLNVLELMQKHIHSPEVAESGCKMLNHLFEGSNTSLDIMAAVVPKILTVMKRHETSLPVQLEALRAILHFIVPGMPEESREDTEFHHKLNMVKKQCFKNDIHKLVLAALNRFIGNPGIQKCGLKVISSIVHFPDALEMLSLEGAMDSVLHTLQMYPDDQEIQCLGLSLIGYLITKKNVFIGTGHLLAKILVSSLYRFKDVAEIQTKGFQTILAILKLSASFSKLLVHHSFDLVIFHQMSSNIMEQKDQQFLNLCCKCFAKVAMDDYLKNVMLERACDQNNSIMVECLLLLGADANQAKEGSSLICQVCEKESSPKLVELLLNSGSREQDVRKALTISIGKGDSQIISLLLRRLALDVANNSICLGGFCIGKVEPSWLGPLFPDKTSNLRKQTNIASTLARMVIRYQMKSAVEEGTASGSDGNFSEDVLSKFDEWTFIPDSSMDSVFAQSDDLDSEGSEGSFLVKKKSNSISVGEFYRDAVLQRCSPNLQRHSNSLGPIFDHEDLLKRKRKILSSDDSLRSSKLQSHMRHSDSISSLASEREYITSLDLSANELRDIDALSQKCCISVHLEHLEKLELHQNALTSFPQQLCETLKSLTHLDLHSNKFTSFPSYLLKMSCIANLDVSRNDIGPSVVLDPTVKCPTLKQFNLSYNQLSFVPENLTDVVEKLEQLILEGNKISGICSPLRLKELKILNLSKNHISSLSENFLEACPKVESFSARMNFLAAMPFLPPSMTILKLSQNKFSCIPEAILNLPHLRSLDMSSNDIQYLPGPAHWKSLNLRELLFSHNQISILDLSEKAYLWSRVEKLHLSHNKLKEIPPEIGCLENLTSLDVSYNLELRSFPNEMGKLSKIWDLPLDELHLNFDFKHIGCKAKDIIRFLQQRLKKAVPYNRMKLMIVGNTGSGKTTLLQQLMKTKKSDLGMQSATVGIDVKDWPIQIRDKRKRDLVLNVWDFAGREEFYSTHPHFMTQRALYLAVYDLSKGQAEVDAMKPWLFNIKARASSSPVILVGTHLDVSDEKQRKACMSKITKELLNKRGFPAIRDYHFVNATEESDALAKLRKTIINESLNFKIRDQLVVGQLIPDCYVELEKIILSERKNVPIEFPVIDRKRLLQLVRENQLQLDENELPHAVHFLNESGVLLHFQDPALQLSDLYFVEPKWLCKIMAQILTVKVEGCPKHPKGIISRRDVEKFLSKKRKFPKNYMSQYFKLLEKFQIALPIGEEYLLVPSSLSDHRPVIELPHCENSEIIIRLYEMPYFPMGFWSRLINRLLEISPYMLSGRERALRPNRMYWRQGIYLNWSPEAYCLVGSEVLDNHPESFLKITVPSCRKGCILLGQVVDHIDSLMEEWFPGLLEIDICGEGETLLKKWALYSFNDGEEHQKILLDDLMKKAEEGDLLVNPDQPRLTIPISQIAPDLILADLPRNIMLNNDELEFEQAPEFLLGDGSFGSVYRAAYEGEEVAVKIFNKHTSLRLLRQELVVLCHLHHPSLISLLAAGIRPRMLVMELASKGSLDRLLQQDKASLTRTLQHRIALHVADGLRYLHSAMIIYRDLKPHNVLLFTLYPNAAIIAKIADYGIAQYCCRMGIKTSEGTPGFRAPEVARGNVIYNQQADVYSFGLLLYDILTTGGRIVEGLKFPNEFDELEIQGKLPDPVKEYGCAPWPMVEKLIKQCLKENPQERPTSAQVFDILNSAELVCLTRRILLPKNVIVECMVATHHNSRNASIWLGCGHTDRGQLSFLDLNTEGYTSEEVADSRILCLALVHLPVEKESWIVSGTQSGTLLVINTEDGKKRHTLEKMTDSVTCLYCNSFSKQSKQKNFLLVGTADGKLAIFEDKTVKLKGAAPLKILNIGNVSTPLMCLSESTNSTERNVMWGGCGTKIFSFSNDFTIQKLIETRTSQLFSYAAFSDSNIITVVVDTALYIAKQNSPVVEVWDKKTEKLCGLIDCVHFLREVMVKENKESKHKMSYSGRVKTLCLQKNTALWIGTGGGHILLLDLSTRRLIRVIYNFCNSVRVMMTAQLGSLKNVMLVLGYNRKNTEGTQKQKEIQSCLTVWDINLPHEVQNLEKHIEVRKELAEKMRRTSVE
Sequence of Aurora kinase B (Q96GD4 whole entry): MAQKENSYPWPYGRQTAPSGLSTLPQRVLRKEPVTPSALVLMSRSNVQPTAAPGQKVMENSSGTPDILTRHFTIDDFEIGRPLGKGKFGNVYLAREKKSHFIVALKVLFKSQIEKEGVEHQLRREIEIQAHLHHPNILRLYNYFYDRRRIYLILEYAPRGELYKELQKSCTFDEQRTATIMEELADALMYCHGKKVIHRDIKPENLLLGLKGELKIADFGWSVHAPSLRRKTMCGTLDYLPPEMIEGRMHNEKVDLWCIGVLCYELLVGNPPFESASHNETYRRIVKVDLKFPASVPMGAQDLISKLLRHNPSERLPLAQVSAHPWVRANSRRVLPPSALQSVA
Sequence of Mitogen-activated protein kinase 13 (O15264 whole entry): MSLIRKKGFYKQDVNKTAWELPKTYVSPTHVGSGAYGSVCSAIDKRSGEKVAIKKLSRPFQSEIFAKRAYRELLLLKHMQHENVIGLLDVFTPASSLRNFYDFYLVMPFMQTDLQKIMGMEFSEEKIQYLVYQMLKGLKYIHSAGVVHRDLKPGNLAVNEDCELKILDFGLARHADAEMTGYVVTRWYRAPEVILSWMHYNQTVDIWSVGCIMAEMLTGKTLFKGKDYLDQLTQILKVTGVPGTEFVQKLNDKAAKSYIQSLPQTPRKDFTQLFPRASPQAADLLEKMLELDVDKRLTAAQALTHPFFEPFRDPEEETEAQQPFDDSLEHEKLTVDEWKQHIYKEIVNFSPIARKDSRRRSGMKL
Sequence of Serine/threonine-protein kinase D2 (Q9BZL6 whole entry): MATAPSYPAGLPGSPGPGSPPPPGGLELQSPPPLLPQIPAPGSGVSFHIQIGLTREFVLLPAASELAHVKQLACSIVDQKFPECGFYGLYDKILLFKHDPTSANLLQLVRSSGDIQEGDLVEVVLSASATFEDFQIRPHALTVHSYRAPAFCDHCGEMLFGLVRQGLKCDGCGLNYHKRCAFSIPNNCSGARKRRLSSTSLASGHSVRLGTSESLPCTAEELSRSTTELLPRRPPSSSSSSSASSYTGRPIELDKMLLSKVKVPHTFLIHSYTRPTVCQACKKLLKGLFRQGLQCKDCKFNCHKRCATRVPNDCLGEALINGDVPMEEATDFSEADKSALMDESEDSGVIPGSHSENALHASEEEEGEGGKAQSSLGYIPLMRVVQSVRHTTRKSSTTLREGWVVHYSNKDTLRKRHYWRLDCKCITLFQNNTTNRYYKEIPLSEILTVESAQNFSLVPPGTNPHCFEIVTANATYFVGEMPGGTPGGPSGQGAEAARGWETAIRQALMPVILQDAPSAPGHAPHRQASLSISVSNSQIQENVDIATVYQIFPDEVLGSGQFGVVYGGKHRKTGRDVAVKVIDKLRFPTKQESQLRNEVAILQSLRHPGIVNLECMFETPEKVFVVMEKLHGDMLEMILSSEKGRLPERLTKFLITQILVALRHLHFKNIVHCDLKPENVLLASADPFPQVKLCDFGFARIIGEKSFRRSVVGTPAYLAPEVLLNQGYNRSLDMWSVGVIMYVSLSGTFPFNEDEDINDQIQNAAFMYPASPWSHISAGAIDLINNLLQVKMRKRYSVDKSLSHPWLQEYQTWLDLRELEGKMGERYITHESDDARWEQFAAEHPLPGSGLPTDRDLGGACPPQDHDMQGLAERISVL
T1 sequence (O43613 whole entry): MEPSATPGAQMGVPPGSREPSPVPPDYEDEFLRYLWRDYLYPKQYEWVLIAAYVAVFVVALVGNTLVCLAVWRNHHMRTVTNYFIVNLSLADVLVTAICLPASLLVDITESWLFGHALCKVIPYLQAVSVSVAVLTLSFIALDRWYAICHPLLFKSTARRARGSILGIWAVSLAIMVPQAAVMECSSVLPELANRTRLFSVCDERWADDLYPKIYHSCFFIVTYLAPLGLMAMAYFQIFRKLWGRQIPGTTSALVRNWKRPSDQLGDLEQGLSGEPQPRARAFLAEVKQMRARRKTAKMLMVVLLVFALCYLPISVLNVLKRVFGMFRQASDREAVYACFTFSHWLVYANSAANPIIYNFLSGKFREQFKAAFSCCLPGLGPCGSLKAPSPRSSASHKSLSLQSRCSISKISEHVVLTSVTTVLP
T2 sequence (O43614 whole entry): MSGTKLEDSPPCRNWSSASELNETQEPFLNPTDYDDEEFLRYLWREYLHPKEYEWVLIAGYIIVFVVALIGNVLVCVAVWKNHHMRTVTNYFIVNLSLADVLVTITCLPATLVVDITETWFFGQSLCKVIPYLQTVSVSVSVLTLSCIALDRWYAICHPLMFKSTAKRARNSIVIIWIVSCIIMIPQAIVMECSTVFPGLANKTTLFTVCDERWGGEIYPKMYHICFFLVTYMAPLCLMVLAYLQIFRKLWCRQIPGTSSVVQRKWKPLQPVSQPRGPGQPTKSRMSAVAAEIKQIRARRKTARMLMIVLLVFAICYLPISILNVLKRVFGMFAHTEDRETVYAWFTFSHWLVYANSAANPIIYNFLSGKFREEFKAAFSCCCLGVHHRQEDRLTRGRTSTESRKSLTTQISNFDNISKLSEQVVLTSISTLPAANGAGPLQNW

**Q.** Which results are given for `CCSc1ccc([C@@H]2[C@H]3C(=O)N(CC)C(=O)[C@H]3[C@]3(C(=O)OC)CCCCN23)cc1OC`?
**A.** IC50 [1]: 12400 nM (inactive); IC50 (Orexin receptor type 2 [2]): 6400 nM (active); IC50 [3]: > 49800 nM (inactive); IC50 (Orexin receptor type 2 [4]): > 50000 nM (inactive); IC50 [5]: 2650 nM (active); IC50 (CHO-K1): > 66300 nM (inactive)

**Q.** What does the source list for `CCCCOc1ccc(C(C)(C)CC)cc1S(=O)(=O)Nc1ccc(-c2csc3ncnc(N)c23)cc1`?
**A.** Ki [6]: 2000 nM (active); Ki [7]: 3980 nM (active); Ki (Aurora kinase B): 6310 nM (active); Ki [8]: 7940 nM (active); Ki [9]: 6310 nM (active); Ki [10]: 6310 nM (active)

**Q.** Which Ki (SRSF protein kinase 1) does the source give for `COc1cccc(-n2nc(C)c3c(=O)c4cc(Cl)ccc4n(O)c32)c1` here?
**A.** Its Ki is 7940 nM (active).

**Q.** And the Ki [11]?
**A.** The Ki was 6310 nM (active).

**Q.** And the Ki (Aurora kinase B)?
**A.** The Ki was 1260 nM (active).

**Q.** What does the source list for `O=S(=O)(c1cccc2cnccc12)N1CCCNCC1` [FASUDIL]?
**A.** Ki [12]: > 2000 nM (inactive); Ki [13]: > 1580 nM (inactive); Ki [14]: > 1260 nM (inactive); Ki [15]: > 1580 nM (inactive); Ki [16]: > 1580 nM (inactive); Ki [17]: > 1260 nM (inactive); Ki [18]: > 398 nM (inactive); Ki (Aurora kinase A): > 1580 nM (inactive); Ki [19]: > 794 nM (inactive); Ki [20]: > 5010 nM (inactive); Ki [21]: 1260 nM (active); pKi [21]: 5.9; Ki [22]: > 5010 nM (inactive); Ki (Activin receptor type-1): > 3980 nM (inactive); Ki [23]: > 1580 nM (inactive); Ki [24]: > 631 nM (inactive); Ki [25]: > 1000 nM (inactive); Ki [26]: > 1580 nM (inactive); Ki [27]: > 7940 nM (inactive); Ki [28]: > 1580 nM (inactive); Ki [29]: > 1580 nM (inactive); Ki [30]: > 2000 nM (inactive); Ki [31]: 2000 nM (active); pKi [31]: 5.7

**Q.** For `CN(c1ncccc1CNc1nc(Nc2ccc3c(c2)CC(=O)N3)ncc1C(F)(F)F)S(C)(=O)=O` [PF-00562271], which Ki [32] is on record?
**A.** The Ki was 63.1 nM (active).

**Q.** And the Ki (Aurora kinase B)?
**A.** Its Ki is 63.1 nM (active).

**Q.** What about the Ki [33] of the same molecule?
**A.** Its Ki is 158 nM (active).

**Q.** And the Ki [34]?
**A.** Its Ki is 63.1 nM (active).

**Q.** And the Ki [35]?
**A.** The Ki was 12.6 nM (active).

**Q.** And the Ki [27]?
**A.** The Ki was > 7940 nM (inactive).

**Q.** And the Ki [36]?
**A.** Its Ki is 63.1 nM (active).

**Q.** What about the Ki [31] of the same molecule?
**A.** Its Ki is 158 nM (active).
